Laboratory results taken from article PMC6795431, “Identification and characterisation of capidermicin, a novel bacteriocin produced by Staphylococcus capitis” (PLoS ONE, 2019).
Entries after “also recorded” stand apart in the source; their conditions may differ. Where no end group is shown, it is not given here. The star is where a group is joined. For = O=C*

What was measured:
[1] = tested on: trypsin; conditions: cited from earlier work
Method: (§1) Similar findings have been reported for epidermicin NI01 [42] and lacticin Q [41]. While capidermicin is insensitive to α-chymotrypsin and pepsin, a 70% reduction in activity was observed when it was treated with proteinase K or trypsin. […] Resistance to proteases has been reported for other staphyloco ...

[2] = target: T1, proteinase K (Parengyodontium album, UniProt P06873); conditions: previously observed; cited from earlier work
T1 construct: purchased Sigma-Aldrich
Method: as §1

[3] = Temperature stability, bioactivity by agar well diffusion; format: physicochemical; conditions: purified peptide, 10, 30, 40, 50, 80, 90 or 121°C for 15 minutes; agar well diffusion with L. lactis HP
Method: (§2) The susceptibility of purified capidermicin peptide to temperature, pH and protease enzymes was investigated through well diffusion assays. To determine temperature stability the purified peptide was subjected to 10, 30, 40, 50, 80, 90, 121°C for 15 minutes. Bioactivity was then determined by carrying out an agar well diffusion assay with L. lactis HP as the bacterial indicator. To evaluate the susceptibility of the peptide to varying pH values, the purified peptide solution was adjusted to pH 2–11 using 1M HCl or 1M NaOH, respectively. After a brief vortex, the peptide was incubated at room temperature for 15 minutes, and the bioactivity was again determined with the well diffusion assay with L. lactis HP. The susceptibility of the peptide to proteolytic cleavage was analysed using trypsin, α-chymotrypsin, pepsin and proteinase K (Sigma-Aldrich). Protease enzymes were dissolved in 100 mM Tris-HCl– 10 mM CaCl2, to a final concentration of 100 μg/ml. Preparations of capidermicin were incubated with the various enzymes at 37°C for 4 hours and the bioactivity of capidermicin was reassessed using the well diffusion assay described above.

[4] = pH stability, bioactivity by agar well diffusion; format: physicochemical; conditions: 15 minutes at room temperature, agar well diffusion with L. lactis HP
Method: as §2

T1 sequence (P06873 106-384): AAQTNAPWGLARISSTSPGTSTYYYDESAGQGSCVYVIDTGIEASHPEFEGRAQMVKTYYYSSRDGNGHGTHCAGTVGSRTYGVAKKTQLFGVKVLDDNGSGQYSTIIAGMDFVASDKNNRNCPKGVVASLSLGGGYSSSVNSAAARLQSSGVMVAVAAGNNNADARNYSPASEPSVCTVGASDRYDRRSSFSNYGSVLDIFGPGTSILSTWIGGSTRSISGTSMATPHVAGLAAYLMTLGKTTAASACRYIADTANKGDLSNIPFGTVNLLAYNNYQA

Substance | Reduction in activity for trypsin [1] [%] | Reduction in activity for proteinase K [2] [%] | Antimicrobial activity following heat treatment [3] | Bioactivity following exposure to pH 2–8 ([4]; pH adjusted with 1M HCl or 1M NaOH) | Decrease in zone of inhibition at pH 9–11 ([4]; pH adjusted with 1M NaOH) [%]
epidermicin NI01 | 50 | 75 |  |  | 
For-MSKVISALSKYGPKAVNWAKNHKGQIANWLLHGLSIPDIVQNVKNAVGIK [capidermicin] |  |  | retained; also recorded: unaffected | full bioactivity | 70
